Legend:
[1] = test system: Human immunodeficiency virus 1; experiment: Binding affinity to HIV1 wild type Gag assessed as dissociation constant by measuring half life
[2] = Solubility of the compound in FeSSIF at pH 5.0; format: physicochemical
[3] = Aqueous solubility of compound at pH 1 to 8; format: physicochemical
[4] = Solubility of the compound in FaSSIF at pH 6.5; format: physicochemical
[5] = test system: Human immunodeficiency virus 1; experiment: Antiviral activity against HIV1 harbouring V362I/V370A mutant infected in human MT2 cells measured after 4 to 5 days by dual-luciferase reporter assay; format: functional, organism-based; conditions: Human immunodeficiency virus 1, MT2
[6] = test system: Human immunodeficiency virus 1; experiment: Antiviral activity against HIV1 harbouring deltaV370/T371A mutant infected in human MT2 cells measured after 4 to 5 days by dual-luciferase reporter assay; format: functional, organism-based; conditions: Human immunodeficiency virus 1, MT2
[7] = test system: Human immunodeficiency virus 1; experiment: Antiviral activity against HIV1 wild type NL (4 to 3) infected in human MT2 cells measured after 4 to 5 days by dual-luciferase reporter assay; format: functional, organism-based; conditions: Human immunodeficiency virus 1, MT2
[8] = test system: Human immunodeficiency virus 1; experiment: Antiviral activity against HIV1 wild type NL (4 to 3) infected in human MT2 cells measured after 4 to 5 days in presence of human serum by dual-luciferase reporter assay; format: functional, organism-based; conditions: Human immunodeficiency virus 1, MT2
[9] = test system: Human immunodeficiency virus 1; experiment: Antiviral activity against HIV1 harbouring T332S/V362I/prR41G mutant infected in human MT2 cells measured after 4 to 5 days by dual-luciferase reporter assay; format: functional, organism-based; conditions: Human immunodeficiency virus 1, MT2
[10] = test system: MT2; experiment: Cytotoxicity in human MT2 cells assessed as reduction in cell viability; format: functional
[11] = AUC in rat at 5 mg/kg, po; format: ADME, organism-based; set-up: dose 5 mg/kg, route po; conditions: in vivo, read-out: AUC
[12] = test system: Human immunodeficiency virus 1; experiment: Antiviral activity against HIV1 NL (4 to 3) harbouring V362I mutant transfected in human HEK293T cells by dual-luciferase reporter assay; format: functional, organism-based; conditions: Human immunodeficiency virus 1, HEK-293T
[13] = Cmax in overnight fasted Beagle dog at 2 mg/kg, po or 1 mg/kg, iv; format: ADME, organism-based, Canis lupus familiaris; set-up: dose 2 mg/kg, route po; conditions: in vivo
[14] = AUC(0 to t) in overnight fasted Sprague-Dawley rat at 5 mg/kg, po or 1 mg/kg, iv; format: ADME, organism-based; set-up: dose 5 mg/kg, route po; conditions: in vivo
[15] = test system: Human immunodeficiency virus 1; experiment: Antiviral activity against HIV1 virus harboring NL (4 to 3) harbouring […]/V370A mutant transfected in human HEK293T cells by luciferase reporter assay; format: functional, organism-based; conditions: Human immunodeficiency virus 1, HEK-293T
[16] = Half life in overnight fasted Beagle dog at 1 mg/kg, iv; format: ADME, organism-based, Canis lupus familiaris; conditions: in vivo
[17] = Volume of distribution at steady state in overnight fasted Sprague-Dawley rat at 5 mg/kg, po or 1 mg/kg, iv; format: ADME, organism-based; conditions: in vivo
[18] = Volume of distribution at steady state in overnight fasted Beagle dog at 2 mg/kg, po or 1 mg/kg, iv; format: ADME, organism-based, Canis lupus familiaris; conditions: in vivo
[19] = test system: Human immunodeficiency virus 1; experiment: Antiviral activity against HIV1 NL (4 to 3) harbouring V362I/deltaV370 mutant transfected in human HEK293T cells by dual-luciferase reporter assay; format: functional, organism-based; conditions: Human immunodeficiency virus 1, HEK-293T
[20] = AUC(0 to t) in overnight fasted mouse at 5 mg/kg, po or 1 mg/kg, iv; format: ADME, organism-based; set-up: dose 5 mg/kg, route po; conditions: in vivo
[21] = test system: Human immunodeficiency virus 1; experiment: Antiviral activity against HIV1 wild type subtype B NL (4 to 3) transfected in human HEK293T cells by dual-luciferase reporter assay; format: functional, organism-based; conditions: Human immunodeficiency virus 1, HEK-293T
[22] = Volume of distribution at steady state in overnight fasted cynomolgus monkey at 2 mg/kg, po or 1 mg/kg, iv; format: ADME, organism-based, Macaca fascicularis; conditions: in vivo
[23] = AUC(0 to t) in overnight fasted cynomolgus monkey at 2 mg/kg, po or 1 mg/kg, iv; format: ADME, organism-based, Macaca fascicularis; set-up: dose 2 mg/kg, route po; conditions: in vivo
[24] = test system: Human immunodeficiency virus 1; experiment: Antiviral activity against HIV1 wild type subtype B NL (4 to 3) harbouring V362/Q369/V370/T371 transfected in human HEK293T cells by dual-luciferase reporter assay; format: functional, organism-based; conditions: Human immunodeficiency virus 1, HEK-293T
[25] = test system: Human immunodeficiency virus 1; experiment: Antiviral activity against HIV in plasma assessed log10 reduction of HIV RNA over 40 mg/kg, po measured after 11 days; format: functional; conditions: time 11 day
[26] = Binding affinity to HIV1 wild type Gag assessed as dissociation constant; set-up: species or system Human immunodeficiency virus 1
[27] = AUC(0 to t) in overnight fasted Beagle dog at 2 mg/kg, po or 1 mg/kg, iv; format: ADME, organism-based, Canis lupus familiaris; set-up: dose 2 mg/kg, route po; conditions: in vivo
[28] = Cmax in overnight fasted cynomolgus monkey at 2 mg/kg, po or 1 mg/kg, iv; format: ADME, organism-based, Macaca fascicularis; set-up: dose 2 mg/kg, route po; conditions: in vivo
[29] = Oral bioavailability in overnight fasted Beagle dog using spray-dried dispersion at 2 mg/kg; format: ADME, organism-based, Canis lupus familiaris; conditions: in vivo
[30] = Volume of distribution at steady state in overnight fasted mouse at 5 mg/kg, po or 1 mg/kg, iv; format: ADME, organism-based; conditions: in vivo
[31] = test system: Human immunodeficiency virus 1; experiment: Antiviral activity against HIV1 wild type subtype C NL (4 to 3) transfected in human HEK293T cells by dual-luciferase reporter assay; format: functional, organism-based; conditions: Human immunodeficiency virus 1, HEK-293T
[32] = Oral bioavailability in overnight fasted cynomolgus monkey using spray-dried dispersion at 2 mg/kg; format: ADME, organism-based, Macaca fascicularis; conditions: in vivo

C=C(C)[C@@H]1CC[C@]2(NCCN3CCS(=O)(=O)CC3)CC[C@]3(C)[C@H](CC[C@@H]4[C@@]5(C)CC=C(C6=CC[C@@](CF)(C(=O)O)CC6)C(C)(C)[C@@H]5CC[C@]43C)[C@@H]12
T1/2 [1]: 5.73 h

C=C(C)[C@@H]1CC[C@]2(NCCN3CCS(=O)(=O)CC3)CC[C@]3(C)[C@H](CC[C@@H]4[C@@]5(C)CC=C(C6=CC[C@@](CF)(C(=O)O)CC6)C(C)(C)[C@@H]5CC[C@]43C)[C@@H]12.Cl.Cl
solubility [2]: 800 µg/mL
solubility [3]: < 1 µg/mL
solubility [4]: 310 µg/mL

C=C(C)[C@@H]1CC[C@]2(NCCN3CCC(S(C)(=O)=O)CC3)CC[C@]3(C)[C@H](CC[C@@H]4[C@@]5(C)CC=C(C6=CCC(CCO)(C(=O)O)CC6)C(C)(C)[C@@H]5CC[C@]43C)[C@@H]12 (stereo partly specified)
EC50 [5]: 2.2 nM
EC50 [6]: 3.7 nM
EC50 [7]: 3 nM
EC50 [8]: 154 nM
EC50 [9]: 10.1 nM
CC50 [10]: 4.9 µM
AUC [11]: 0.591 µM·h

C=C(C)[C@@H]1CC[C@]2(NCCN3CCS(=O)(=O)CC3)CC[C@]3(C)[C@H](CC[C@@H]4[C@@]5(C)CC=C(c6ccc(C(=O)O)cc6)C(C)(C)[C@@H]5CC[C@]43C)[C@@H]12 [BMS-955176]
EC50 [12]: 11.1 nM
Cmax [13]: 600 nM
AUC(0-t) [14]: 14.2 µM·h
EC50 [15]: > 3000 nM
half-life [16]: 1900 min
Vdss [17]: 1.1 L/kg
Vdss [18]: 0.36 L/kg
EC50 [19]: 1400 nM
AUC(0-t) [20]: 21.6 µM·h
EC50 [21]: 66 nM
Vdss [22]: 0.43 L/kg
EC50 [5]: > 3000 nM
AUC(0-t) [23]: 1 µM·h
EC50 [24]: 2.8 nM
Activity [25]: >1 log10IU/ml
EC50 [6]: 6 nM
T1/2 [1]: 0.717 h
Kd [26]: 1.4 nM
AUCt [27]: 29.3 µM·h
EC50 [7]: 5 nM
EC50 [8]: 10.2 nM
Cmax [28]: 100 nM
EC50 [9]: 704 nM
F [29]: 9%
CC50 [10]: 13 µM
Vdss [30]: 0.82 L/kg
EC50 [31]: 9.1 nM
bioavailability [32]: 4%

C=C(C)[C@@H]1CC[C@]2(NCCN3CCC(S(C)(=O)=O)CC3)CC[C@]3(C)[C@H](CC[C@@H]4[C@@]5(C)CC=C(C6=CCC(CCCO)(C(=O)O)CC6)C(C)(C)[C@@H]5CC[C@]43C)[C@@H]12 (stereo partly specified)
EC50 [5]: 3.2 nM
EC50 [6]: 2.9 nM
EC50 [7]: 2.6 nM
EC50 [8]: 16 nM
EC50 [9]: 7.9 nM
CC50 [10]: 12.4 µM
AUC [11]: 4.36 µM·h
